For one data set, the system named is FerBHis6. Kind of data set: Stopped-flow reduction of enzyme-bound flavin cofactor by NADH. The class given is biochemical, Paracoccus denitrificans. On the procedure: Stopped-flow spectrophotometry was performed on a SFM-3000 (Bio-Logic) stopped-flow system equipped with a 0.8- × 0.8-mm cuvette (FC-08). The temperature was kept constant at 10 °C with a thermostating water bath. Six measurements were averaged for each sample. […] Results from the stopped-flow experiments were analyzed in the Bio-Kine software (BioLogic).

For data set [1], the target named is FerBHis6 wild-type and mutant variants. Put plainly: Steady-state kinetics of NADH oxidation with UQ-0 as acceptor (quinone reductase activity). Particulars: UQ-0 100 µM, pH 7.4, 30 °C. In kind it is biochemical, Paracoccus denitrificans.
Experimental: (§1) The kinetic parameters ± standard error were determined by fitting the data to the appropriate kinetic equation using nonlinear regression and the program Microcal Origin (version 5.0).
Another data set has as its target apoFerBHis6 (Paracoccus denitrificans, UniProt A1B9E3). Kind of data set: Fluorescence titration of free flavin by apoenzyme (dissociation constants). In kind it is binding. Particulars: for Kd: 25 mM Tris-HCl, pH 7.4, 25 °C, read-out: Kd of apoFerBHis6-flavin complex. As for the experimental part: Dissociation constants of apoenzyme-flavin complexes were determined from fluorescence titration with excitation at 450 nm by adding of constant amount of the wild-type and mutant variants of apoFerBHis6 into 25 mM Tris-HCl buffer (pH 7.4) with 100 nM FMN or riboflavin. Decreasing emission intensities at 519 nm were recorded on Luminescence Spectrotometer LS-50B (Perkin-Elmer). Series of different concentrations of FMN standard was used for setting of a calibration curve on fluorescence intensity. The dissociation constants Kd were calculated according to [22] and converted to the binding Gibbs energy changes ΔGb = -RTln (1/Kd) (where R, gas constant, T, absolute temperature), from which the variation of Gibbs energy due to mutation (ΔΔGb) was computed as the difference in binding energy between mutant and wild-type enzyme (ΔΔGb = ΔGb(mut) - ΔGb(wt)).

The conditions of data set [2]: cited from earlier work.
In the next data set the target is T1, FerBHis6-R95A (Paracoccus denitrificans, UniProt A1B9E3, R95A).
T1 sequence (A1B9E3 1-182 R95A): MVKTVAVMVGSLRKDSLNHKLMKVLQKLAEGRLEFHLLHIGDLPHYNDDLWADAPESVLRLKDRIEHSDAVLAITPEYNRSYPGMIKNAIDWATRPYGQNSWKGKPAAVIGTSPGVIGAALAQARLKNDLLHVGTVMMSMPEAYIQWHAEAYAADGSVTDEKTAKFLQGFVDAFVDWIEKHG
Kind of data set: NADH:flavin oxidoreductase initial-velocity kinetics of R95A mutant. The class given is biochemical.

For data set [3], the target named is FerB (ferric reductase B, NAD(P)H:acceptor oxidoreductase) of Paracoccus denitrificans with a C-terminal six-histidine tag (Paracoccus denitrificans) (UniProt P84469). Kind of data set: SAXS; […] protein, 290.15 K, buffer of the last purification step; dimer to tetramer; volume fractions by OLIGOMER
The target is the same in data set [4]. Kind of data set: SAXS; 5.0 mg/mL protein, 290.15 K, buffer of the last purification step; dimer to tetramer; volume fractions by OLIGOMER
Data set [5] shares this target. Kind of data set: SAXS; 1.25 mg/mL protein, 290.15 K, buffer of the last purification step; dimer to tetramer; volume fractions by OLIGOMER
The target is the same in data set [6]. Put plainly: SEC; Superose 12, 0.1 mL of 0.5 mg/mL protein, 25 mM Tris-HCl pH 7.4, 0.5 mL/min, calibrated with marker proteins; holoenzyme.
Data set [7] has as its system Cc1cc2nc3c(=O)[nH]c(=O)nc-3n(C[C@H](O)[C@H](O)[C@H](O)CO)c2cc1C. Put plainly: purified protein, by the assay type. The class given is biochemical, Paracoccus denitrificans. Particulars: other: NADH as donor; pH 7.4; 30.0 °C.
Experimental: as §1
(§2) Measurements were performed at 30 °C with 61 nM enzyme in 25 mM Tris-HCl buffer (pH 7.4).
In data set [8] the test system is Cc1cc2nc3c(=O)[nH]c(=O)nc-3n(C[C@H](O)[C@H](O)[C@H](O)COP(=O)(O)O)c2cc1C. Kind of data set: purified protein, by the assay type. The settings on record: other: NADH as donor. In kind it is biochemical, Paracoccus denitrificans.
Experimental: as §1, §2
For data set [9], the system named is Cc1cc2nc3c(=O)[nH]c(=O)nc-3n(C[C@H](O)[C@H](O)[C@H](O)COP(=O)(O)OP(=O)(O)OC[C@H]3O[C@@H](n4cnc5c(N)ncnc54)[C@H](O)[C@@H]3O)c2cc1C. Kind of data set: purified protein, by the assay type. Particulars: other: NADH as donor; pH 7.4; 30.0 °C. The class given is biochemical, Paracoccus denitrificans.
Experimental: as §1, §2
Data set [10] can be described thus: Standard redox potential by xanthine/xanthine oxidase method of Massey with reference dye. Particulars: 50 µM free FMN, pH 7.0. In kind it is physicochemical.
The test system of a further data set is FerB. Kind of data set: Activity toward external FMN, wild-type enzyme. The class given is biochemical, Paracoccus denitrificans.
Data set [11] is described as follows: FMN self-association in aqueous solution by 1H NMR chemical shift (literature). Particulars: order of magnitude, from association constant of ref 46. In kind it is physicochemical.
In another data set the test system is WrbA protein of E. coli. Set-up: method as in PMID 9694845. The settings on record: cited from earlier work.
On the set-up of data set [12]: method as in PMID 17029888. The settings on record: aqueous solutions; cited from earlier work.
The next data set concerns B. subtilis YhdA. Further details: method as in PMID 16752898. The settings on record: cited from earlier work.
Data set [13] has as its system EmoB of Mesorhizobium sp. bacterium BNC1. Particulars: cited from earlier work.

“And” between values parts separate entries of the source, which are not always exact repeats. Equal entries are not always repeated.

Experimental for FerBHis6-R95A: as §1, §2

For `COC1=C(OC)C(=O)C(C)=CC1=O` [UQ-0, 2,3-dimethoxy-5-methyl-1,4-bezoquinone], the “time to complete oxidation of dithionite pre-reduced flavin cofactor” value in the data set on FerBHis6 (200 µM UQ-0, within stopped-flow dead time, all proteins) is reported as not above 0.4 ms.

As to `[2H][C@H]1C=CN(C2OC(COP(=O)(O)OP(=O)(O)OCC3OC(n4cnc5c(N)ncnc54)C(O)C3O)C(O)C2O)C=C1C(N)=O` (stereo partly drawn) [[4S-^2H]NADH], the “kinetic isotope effect for enzyme-catalyzed UQ-0 reduction” value in [1] was determined as 5.45±0.21.

`Cc1cc2nc3c(=O)[nH]c(=O)nc-3n(C[C@H](O)[C@H](O)[C@H](O)CO)c2cc1C` [riboflavin]: on apoFerBHis6, the Kd was 6.58 µM and 6.6 µM. In addition, the “increase in Kd relative to FMN” value on apoFerBHis6 (riboflavin vs FMN) is reported as 244 fold.

`O=C1/C(=C2\Nc3ccc(S(=O)(=O)[O-])cc3C2=O)Nc2ccc(S(=O)(=O)[O-])cc21.[Na+].[Na+]` [indigo carmine]: the “E° ´ of reference dye” value in data set [2] is listed as −125 mV.

`Nc1ccc2nc3ccc(N)cc3[n+](-c3ccccc3)c2c1.[Cl-]` [phenosafranin]: in data set [2], the “E° ´ of reference dye” value is −252 mV.

`NC(=O)C1=CN([C@@H]2O[C@H](COP(=O)(O)OP(=O)(O)OC[C@H]3O[C@@H](n4cnc5c(N)ncnc54)[C@H](O)[C@@H]3O)[C@@H](O)[C@H]2O)C=CC1` [NADH]: the “NADH concentration giving half maximal effect on kobs” value with FerBHis6 (30 µM FerBHis6, 1–5000 µM NADH, 10 °C, anaerobic) is 6.4 ± 1.0 µM. The “pH dependence of kobs” value in the data set with FerBHis6 (5 mM NADH, pH interval 3–9) was “did not depend on pH”. Further, in the data set on FerBHis6 (10 °C, anaerobic), the “limit of kobs (apparent electron-transfer rate constant for FerB-NADH complex)” value is 147.0 ± 0.4 s⁻¹ and ~140 s⁻¹. Besides, at FerBHis6-R95A (FMN as acceptor, bisubstrate ping-pong fit), the “Michaelis constant for NADH” value is 33 ± 7 µM.

Regarding “FerB (ferric reductase B, NAD(P)H:acceptor oxidoreductase) of Paracoccus denitrificans with a C-terminal six-histidine tag (from UniProt P84469 1-27) (enzyme)”, the partial volume fraction of dimer in data set [3] was 13%; in data set [4] it was 9%; in [5] it was 34%. For the same compound, the partial volume fraction of tetramer in data set [3] worked out at 87%; in data set [4], 91%; in data set [5], 66%. Besides, the stoichiometry N in data set [6] stood at 1.88 subunits.

`[2H][C@@H]1C=CN(C2OC(COP(=O)(O)OP(=O)(O)OCC3OC(n4cnc5c(N)ncnc54)C(O)C3O)C(O)C2O)C=C1C(N)=O` (stereo partly drawn) [[4R-^2H]NADH]: the “kinetic isotope effect for enzyme-catalyzed UQ-0 reduction” value in [1] is 1.07±0.13.

As to `O=C1c2ccccc2C(=O)c2cc(S(=O)(=O)O)ccc21` [anthraquinone-2-sulfonate], the “E° ´ of reference dye” value in data set [2] is −225 mV.

For the compound `[2H]C1C=CN(C2OC(COP(=O)(O)OP(=O)(O)OCC3OC(n4cnc5c(N)ncnc54)C(O)C3O)C(O)C2O)C=C1C(N)=O` (centres unmarked) [deuterated NADH], the “kinetic isotope effect for enzyme-catalyzed UQ-0 reduction” value in data set [1] is reported as “about 6”.

Take “FerBHis6-R95A (Paracoccus denitrificans PD1222; R95A)”: the Km stood at 59 ± 12 µM in data set [7]; 111 ± 15 µM in [8] (pH 7.4, 30.0 °C); 95 ± 7 µM in data set [9]. The catalytic constant (kcat) in [7] was 75 ± 10 s⁻¹; in data set [8] (30 °C, 25 mM Tris-HCl pH 7.4), 50 ± 5 s⁻¹; in data set [9], 38 ± 1 s⁻¹.

As for `Cc1cc2nc3c(=O)[nH]c(=O)nc-3n(C[C@H](O)[C@H](O)[C@H](O)COP(=O)(O)O)c2cc1C` [FMN, flavin mononucleotide], the Kd was 0.027 ± 0.002 µM at apoFerBHis6 and 2 µM in the data set on WrbA protein of E. coli. Further, at apoFerBHis6 (calculated from Kd values of FMN and riboflavin), the “Gibbs binding energy coming from the phosphate” value is -3.25 kcal/mol. The “total Gibbs binding energy” value at apoFerBHis6 (calculated from experimental Kd) was -10.3 kcal/mol. Besides, the “E° ´ of free flavin” value in [10] was −212 mV. In addition, the “kinetic solvent isotope effect kobs(H2O)/kobs(D2O)” value on FerBHis6 (99% deuterium oxide, buffer pH 6.8) was determined as 1.9. Further, the “ratio of kcat toward external FMN to kcat toward UQ-0” value in the data set with FerB is “about 0.006”; at FerBHis6-R95A (R95A mutation) it was 0.32. Further, the “kcat (catalytic constant) of flavin reduction” value at FerBHis6-R95A (NADH as donor, 30 °C, 25 mM Tris-HCl pH 7.4) is 50 s⁻¹. The “expected dissociation constant of self-association” value in data set [11] is given as approximately 10 mM. For the same compound, in data set [2] (free FMN), the “E° ´ published value” is given as −207 mV. In addition, in data set [12], the self-association constant is 20 to 100 M⁻¹. The “kcat of FMN reduction” value in the data set with B. subtilis YhdA was 60 to 70 s⁻¹; in data set [13] (calculated from Vmax using subunit mass 21 412 Da), 397 s⁻¹. Moreover, in data set [13], the Vmax was 1111 µmol/min/mg.

In general, Kd refers to the concentration at which binding is half-saturated. For orientation: stoichiometry N means a count of units in the complex or per binding partner. What is called Km is the substrate concentration at which the rate is half of its maximum. A word on the kcat: it is the maximal rate divided by the concentration of active sites. Usually Vmax stands for the top rate of the reaction or transport when substrate is in excess.

Values taken from publication PMC4015959, “The Structural and Functional Basis of Catalysis Mediated by NAD(P)H:acceptor Oxidoreductase (FerB) of Paracoccus denitrificans” (PLoS ONE, 2014).
